Data as given in the supplement of paper PMC10627819.

Tests used:
S. aureus DSM 20231 [1] = test: fitness (endpoint OD595 vs no drug) (fraction); higher = more growth
Summary of the method: (§1)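 Fitness compares growth at the stationary-phase transition with the robust mean of no-drug control wells, as a ratio of optical densities. The ratio is capped at 1. Wells of 384-well plates held 30 µl, or 55 µl for S. pneumoniae, inoculated at OD595 0.01. Readings at OD595 every 30 min for 14 h at 37 °C were corrected against the first reading.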

S. aureus Newman [2] = test: as above
Summary of the method: as §1

S. pneumoniae D39V [3] = test: as above
Summary of the method: as §1

B. subtilis 168 = test: Bliss interaction score (quartile over a dose matrix) (fitness difference); higher = more antagonism (negative = synergy)
Summary of the method: (§2)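 Values were capped at 1 after dividing OD595 at stationary-phase entry by the plate's robust no-drug mean. This ratio is fitness, and single-drug fitness was inferred from the combination data. The Bliss score is observed minus product-expected fitness, given as quartiles over technical, biological and donor/recipient replicates.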

S. aureus DSM 20231 [4] = test: as above
Summary of the method: as §2

S. aureus Newman [5] = test: as above
Summary of the method: as §2

S. pneumoniae D39V [6] = test: as above
Summary of the method: as §2
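Wherever Bliss interaction score (quartile over a dose matrix) is given: first quartile when negative (synergy) and third quartile when positive (antagonism).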

CO/N=C(\C(=O)N[C@@H]1C(=O)N2C(C(=O)[O-])=C(C[N+]3(C)CCCC3)CS[C@H]12)c1csc(N)n1 [Cefepime] + Cc1cc(NS(=O)(=O)c2ccc(N)cc2)no1 [Sulfamethoxazol]
fitness
Conditions | first compound 0.007 µg/mL | first compound 0.014 µg/mL | first compound 0.028 µg/mL | first compound 0.125 µg/mL | first compound 0.25 µg/mL | first compound 0.5 µg/mL
S. aureus DSM 20231 [1], partner 1 µg/mL | – | – | – | 0.839 | 0.739 | 0.79
S. aureus DSM 20231 [1], partner 2 µg/mL | – | – | – | 0.88 | 0.766 | 0.84
S. aureus DSM 20231 [1], partner 4 µg/mL | – | – | – | 0.874 | 0.779 | 0.823
S. aureus Newman [2], partner 1 µg/mL | – | – | – | 0.956 | 0.875 | 0.745
S. aureus Newman [2], partner 2 µg/mL | – | – | – | 0.908 | 0.843 | 0.773
S. aureus Newman [2], partner 4 µg/mL | – | – | – | 0.964 | 0.863 | 0.789
S. pneumoniae D39V [3], partner 1 µg/mL | 0.978 | 0.991 | 0.887 | – | – | –
S. pneumoniae D39V [3], partner 2 µg/mL | 0.982 | 0.986 | 0.922 | – | – | –
S. pneumoniae D39V [3], partner 4 µg/mL | 0.98 | 0.992 | 0.892 | – | – | –

fitness, one replicate
Conditions | first compound 0.0078 µg/mL | first compound 0.0155 µg/mL | first compound 0.031 µg/mL | first compound 0.125 µg/mL | first compound 0.25 µg/mL | first compound 0.5 µg/mL
S. aureus Newman [2], partner 8 µg/mL | – | – | – | 0.981 | 0.972 | 0.854
S. pneumoniae D39V [3], partner 1 µg/mL | ≥ 1 | 0.99 | 0.842 | – | – | –
S. pneumoniae D39V [3], partner 2 µg/mL | ≥ 1 | ≥ 1 | 0.866 | – | – | –
S. pneumoniae D39V [3], partner 4 µg/mL | 0.959 | 0.914 | 0.804 | – | – | –

Conditions | Bliss interaction score
B. subtilis 168 | 0.0793
S. aureus DSM 20231 [4] | -0.0768
S. aureus Newman [5] | -0.0727
S. pneumoniae D39V [6] | 0.034

CO/N=C(\C(=O)N[C@@H]1C(=O)N2C(C(=O)[O-])=C(C[N+]3(C)CCCC3)CS[C@H]12)c1csc(N)n1 [Cefepime] + Cc1ncc([N+](=O)[O-])n1CCO [Metronidazole]
Conditions | fitness
S. aureus DSM 20231 [1], first compound 0.125 µg/mL, partner 0.625 µg/mL | 0.981
S. aureus DSM 20231 [1], first compound 0.125 µg/mL, partner 1.25 µg/mL | ≥ 1
S. aureus DSM 20231 [1], first compound 0.125 µg/mL, partner 2.5 µg/mL | ≥ 1
S. aureus DSM 20231 [1], first compound 0.25 µg/mL, partner 0.625 µg/mL | 0.958
S. aureus DSM 20231 [1], first compound 0.25 µg/mL, partner 1.25 µg/mL | ≥ 1
S. aureus DSM 20231 [1], first compound 0.25 µg/mL, partner 2.5 µg/mL | ≥ 1
S. aureus DSM 20231 [1], first compound 0.5 µg/mL, partner 0.625 µg/mL | 0.925
S. aureus DSM 20231 [1], first compound 0.5 µg/mL, partner 1.25 µg/mL | 0.958
S. aureus DSM 20231 [1], first compound 0.5 µg/mL, partner 2.5 µg/mL | 0.928
S. aureus Newman [2], first compound 0.125 µg/mL, partner 0.625 µg/mL | 0.942
S. aureus Newman [2], first compound 0.125 µg/mL, partner 0.781 µg/mL | 0.957
S. aureus Newman [2], first compound 0.125 µg/mL, partner 1.25 µg/mL | 0.922
S. aureus Newman [2], first compound 0.125 µg/mL, partner 1.562 µg/mL | 0.914
S. aureus Newman [2], first compound 0.125 µg/mL, partner 2.5 µg/mL | 0.957
S. aureus Newman [2], first compound 0.125 µg/mL, partner 3.124 µg/mL | 0.924
S. aureus Newman [2], first compound 0.25 µg/mL, partner 0.625 µg/mL | 0.855
S. aureus Newman [2], first compound 0.25 µg/mL, partner 0.781 µg/mL | 0.854
S. aureus Newman [2], first compound 0.25 µg/mL, partner 1.25 µg/mL | 0.876
S. aureus Newman [2], first compound 0.25 µg/mL, partner 1.562 µg/mL | 0.844
S. aureus Newman [2], first compound 0.25 µg/mL, partner 2.5 µg/mL | 0.814
S. aureus Newman [2], first compound 0.25 µg/mL, partner 3.124 µg/mL | 0.83
S. aureus Newman [2], first compound 0.5 µg/mL, partner 0.625 µg/mL | 0.799
S. aureus Newman [2], first compound 0.5 µg/mL, partner 0.781 µg/mL | 0.761
S. aureus Newman [2], first compound 0.5 µg/mL, partner 1.25 µg/mL | 0.752
S. aureus Newman [2], first compound 0.5 µg/mL, partner 1.562 µg/mL | 0.731
S. aureus Newman [2], first compound 0.5 µg/mL, partner 2.5 µg/mL | 0.749
S. aureus Newman [2], first compound 0.5 µg/mL, partner 3.124 µg/mL | 0.764
S. pneumoniae D39V [3], first compound 0.007 µg/mL, partner 1.25 µg/mL | ≥ 1
S. pneumoniae D39V [3], first compound 0.007 µg/mL, partner 2.5 µg/mL | ≥ 1
S. pneumoniae D39V [3], first compound 0.007 µg/mL, partner 5 µg/mL | ≥ 1
S. pneumoniae D39V [3], first compound 0.0078 µg/mL, partner 1.073 µg/mL | 0.998
S. pneumoniae D39V [3], first compound 0.0078 µg/mL, partner 2.145 µg/mL | 0.943
S. pneumoniae D39V [3], first compound 0.0078 µg/mL, partner 4.29 µg/mL | 0.988
S. pneumoniae D39V [3], first compound 0.014 µg/mL, partner 1.25 µg/mL | ≥ 1
S. pneumoniae D39V [3], first compound 0.014 µg/mL, partner 2.5 µg/mL | ≥ 1
S. pneumoniae D39V [3], first compound 0.014 µg/mL, partner 5 µg/mL | ≥ 1
S. pneumoniae D39V [3], first compound 0.0155 µg/mL, partner 1.073 µg/mL | 0.977
S. pneumoniae D39V [3], first compound 0.0155 µg/mL, partner 4.29 µg/mL | 0.968
S. pneumoniae D39V [3], first compound 0.028 µg/mL, partner 1.25 µg/mL | 0.957
S. pneumoniae D39V [3], first compound 0.028 µg/mL, partner 2.5 µg/mL | 0.964
S. pneumoniae D39V [3], first compound 0.028 µg/mL, partner 5 µg/mL | 0.912
S. pneumoniae D39V [3], first compound 0.031 µg/mL, partner 1.073 µg/mL | 0.939
S. pneumoniae D39V [3], first compound 0.031 µg/mL, partner 2.145 µg/mL | 0.9
S. pneumoniae D39V [3], first compound 0.031 µg/mL, partner 4.29 µg/mL | 0.942

Conditions | Bliss interaction score
B. subtilis 168 | 0.0894
S. aureus DSM 20231 [4] | 0.047
S. aureus Newman [5] | -0.0502
S. pneumoniae D39V [6] | 0.0181
